Experimental data from article PMC7934444, “A bifunctional enzyme belonging to cytochrome P450 family involved in the O-dealkylation and N-dealkoxymethylation toward chloroacetanilide herbicides in Rhodococcus sp. B2” (Microbial Cell Factories, 2021).

Target: T1, EthABDB2 (EthAB2 + EthBB2 + EthDB2) (Rhodococcus sp. B2, UniProt A0A8A6W4L4)
T1 construct: gene ethB; 43 kDa (EthA), 44 kDa (EthB), 10 kDa (EthD); mixed in vitro; EthB has ten residue differences from EthB of strain T3-1; with Ferredoxin reductase EthA; EthD protein (10 kDa; unknown function, acts as ferredoxin)
T1 sequence (A0A8A6W625 entry or part of it): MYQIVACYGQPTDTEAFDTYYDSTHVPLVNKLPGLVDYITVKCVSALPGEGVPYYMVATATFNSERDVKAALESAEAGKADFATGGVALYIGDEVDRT
T1 sequence (A0A8A6W4L4 entry or part of it): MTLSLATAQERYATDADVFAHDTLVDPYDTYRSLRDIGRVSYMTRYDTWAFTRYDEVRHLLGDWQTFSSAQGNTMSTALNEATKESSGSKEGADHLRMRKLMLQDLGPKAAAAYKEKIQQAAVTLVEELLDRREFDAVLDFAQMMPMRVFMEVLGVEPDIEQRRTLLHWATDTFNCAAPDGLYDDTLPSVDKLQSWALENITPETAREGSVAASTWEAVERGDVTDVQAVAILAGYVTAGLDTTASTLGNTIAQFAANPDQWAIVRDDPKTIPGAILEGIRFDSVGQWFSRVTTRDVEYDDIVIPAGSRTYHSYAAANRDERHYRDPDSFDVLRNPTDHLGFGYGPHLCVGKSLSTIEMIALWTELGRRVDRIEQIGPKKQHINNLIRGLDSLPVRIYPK
T1 sequence (A0A8A6W576 entry or part of it, further chain): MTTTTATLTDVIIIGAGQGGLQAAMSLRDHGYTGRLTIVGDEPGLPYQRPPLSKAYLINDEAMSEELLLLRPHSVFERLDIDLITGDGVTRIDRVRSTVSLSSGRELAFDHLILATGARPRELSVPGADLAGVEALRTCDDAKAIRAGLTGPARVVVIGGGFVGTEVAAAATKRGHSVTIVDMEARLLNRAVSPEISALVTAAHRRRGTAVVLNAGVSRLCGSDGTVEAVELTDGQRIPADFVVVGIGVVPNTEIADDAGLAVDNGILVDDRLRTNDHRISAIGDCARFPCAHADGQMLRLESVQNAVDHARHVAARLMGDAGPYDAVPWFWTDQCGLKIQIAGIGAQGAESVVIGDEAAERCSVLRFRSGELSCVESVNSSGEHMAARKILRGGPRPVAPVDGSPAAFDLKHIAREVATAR
Test: reconstituted enzyme assay, HPLC substrate loss; GC-MS of product CMEPA
Format: biochemical
Conditions: 0.5 mM substrate; 1 mM NADH, 0.5 mM Fe2+, 1 mM MgCl2, 20 mM Tris-HCl pH 7.5, 30 °C; N-dealkoxymethylation

CCc1cccc(C)c1N(COC(C)C)C(=O)CCl [propisochlor] was tested, and the “reconstituted enzyme assay, HPLC substrate loss; GC-MS of product CMEPA” value was “EthABDB2 performed N-dealkoxymethylation to acetochlor, alachlor, propisochlor and butachlor, O-dealkylation to pretilachlor”.
